Measurements reported in patent US9408906B2, “Peptide particle formulation” (FLOW PHARMA, INC., priority 2010, dated 2016).

Tested on: Mature dendrocytes mixed with T-Lymphocytes
Assay: Antigen presentation and T cell stimulation: production of human γ-IFN measured by ELISA
Type: cell-based
Conditions: human γ-IFN production after 2 hours incubation; HLA-A02 CMV-exposed donor PBMC-derived dendrocytes + T-lymphocytes; free peptide at 10^−9 M or 15 micron PLGA microspheres with approximately 2% NLVPMVATV
From the text: Preparation of Dendritic Cells from peripheral blood mononuclear cells (PBMC). Frozen PBMC cells were obtained from Cellular Technology Limited, from volunteer donors known to have been exposed to CMV, and to be HLA-A02. The volunteer's antigen presenting cells were known to be capable of presenting HCMV pp 65 (NLVPMVATV) CMV epitope to T lymphocytes. Human PBMC (Peripheral Blood Mononuclear Cells) isolated from leukopacks and frozen in serum-free CTL-Cryo™ medium. These leukopacks were ethically collected from healthy donors tested for: HBsAg, HBcAb, HCV, HTLV I/II, and STS by serology; as well as HIV I, HCV, and WNV by NAT.
Cells were thawed and plated at a concentration of 1×10^5 monocytes/well of a 24-well plate in medium supplemented with GM-CSF at a final concentration of 50 ng/ml and IL-4 at a final concentration of 100 ng/ml. Cells were maintained in culture at 37° C./5% CO2 for 6 days; and used with 8 days after that point. Optical microscopy confirmed maturation of monocytes to dendrocytes capable of phagocytosis of 15 micron PLGA microspheres.
Presentation of antigen and stimulation of T cells was assessed by production of human γ-IFN, measured by ELISA. […] Production of γ-IFN was measured after 2 hours.

## NLVPMVATV [free peptide]
  ELISA Optical Density: 0.612
